{"source": "paper PMC8207694", "about": "“Nucleoside transporter-guided cytarabine-conjugated liposomes for intracellular methotrexate delivery and cooperative choriocarcinoma therapy” (Journal of Nanobiotechnology, 2021)", "key": {"Pricell-0051 cells": {"test_system": "Pricell-0051 cells", "experiment": "In vitro cytotoxicity, MTT assay", "format": "cell-based", "conditions": "Homo sapiens; Pricell-0051, 48 h, MTX-equivalent", "protocol": "(§1) The cytotoxicities of MTX formulations were assessed via MTT assay. The groups were as follows: MTX solution (free MTX), MTX plus DSPE-PEG2k-Cy (abbreviated as MTX + Cy-lipid, the molar ratio of Cy-lipid to MTX was about 1:5.0), Lipo@MTX, and Cy-Lipo@MTX. JEG-3 cells or Pricell-0051 cells were added to 96-well plates (1 × 10^4 cells/well). After 24 h, cells were rinsed using PBS and treated with MTX formulations (0.001–30 μg MTX-equivalent/mL) for 48 h at 37 °C [40]. Viability was assessed by adding 20 μL of MTT (5 mg/mL) per well for 4 h. Next, the medium was removed and formazan crystals were dissolved via the addition of 150 μL of DMSO. A microplate reader (Varioskan Flash 3001, Thermo Fisher Scientific, USA) was then used to assess absorbance at 490 nm."}, "JEG-3 cells [1]": {"test_system": "JEG-3 cells", "experiment": "In vitro cytotoxicity, MTT assay", "format": "cell-based", "conditions": "Homo sapiens; JEG-3, 48 h, MTX-equivalent", "protocol": "as §1"}, "JEG-3 cells [2]": {"test_system": "JEG-3 cells", "experiment": "Cell structure damage (bio-TEM)", "format": "cell-based, human", "conditions": "1 μg/mL MTX-equivalent, 24 h", "protocol": "Bio-TEM was applied for observing the cell structure and mitochondrial damage effect induced by MTX formulations. Briefly, JEG-3 cells were seeded in a 6 cm dish. After culturing for 24 h, the cells were treated with free MTX, MTX + Cy-lipid, Lipo@MTX, or Cy-Lipo@MTX at an equivalent MTX concentration (1 μg/mL) for another 24 h. Then, cells were digested, centrifuged, and fixed with 2.5% glutaraldehyde solution at 4 °C for more than 4 h. Finally, the bio-TEM observation was performed after sample preparation."}}, "data": [{"compound": "CN(Cc1cnc2nc(N)nc(N)c2n1)c1ccc(C(=O)N[C@@H](CCC(=O)O)C(=O)O)cc1", "note": "[free MTX, Methotrexate]", "values": [{"measurement": "IC50", "setting": "Pricell-0051 cells", "value": 32.2, "unit": "µg/mL"}, {"measurement": "IC50", "setting": "JEG-3 cells [1]", "value": 19.6, "unit": "µg/mL"}, {"measurement": "cell structure and mitochondria (bio-TEM)", "setting": "JEG-3 cells [2]", "value": "cell structure was intact and the cell boundary was clearly visible"}]}]}
